The structures appear in SMILES notation. “Also recorded” adds a separate entry of the source. Read-outs that look alike come from different tables or passages of the source.

The subject of series [1] is T. evansi. Details: method as in PMID 20149544. To be noted: cited from earlier work; for in vitro IC50: 72 hour assay against T. evansi; for estimated MIC (minimal inhibitory concentration): estimated at least four times the IC50.
The subject of series [2] is T. evansi. The series is described as follows: Curative efficacy in T. evansi experimentally infected goats (five month follow up, overall outcome). It counts as in vivo, Trypanosoma evansi (Canaries (Rubio) strain) in goats. As for the experimental part: Various diagnostic tests were used to evaluate the curative efficacy of the compounds, over a five month follow up period. The haematocrit centrifugation technique, was utilised as the standard parasitological test. The serological CATT/T. evansi test was performed to determine the presence or absence of antibodies. As a validating molecular based technique, a mini-exon 18S ribosomal PCR method designed for the detection of parasite DNA was also applied.
Fresh camel blood (400 µl) was collected from the jugular vein of a camel and 200 µl volumes inoculated (i.p.) into two mice. Once a parasitaemia had established, blood was collected via cardiac puncture and mixed with phosphate buffered saline with glucose (PSG) to provide the T. evansi suspension used for experimental goat infection. Thereafter, all 25 goats were experimentally infected intravenously (i.v.), with 10^6 parasites/goat.
Goats were divided into 8 groups, where group 1 contained four goats whilst group's 2 to 8 each contained three goats. […] All test compounds were administered intra-muscularly with four applications, on days 32, 34, 36 and 38 post-infection. Thereafter, follow up diagnostic methods were carried out for five months post treatment.

Series [3] can be described thus: Plasma drug levels and pharmacokinetic parameters in T. evansi infected goats (HPLC/MS-MS). The series is classed as in vivo, goat. As for the experimental part:
In addition, blood samples were taken shortly before each compound injection was applied, to determine the trough levels. All samples were centrifuged at 3000 g for ten minutes. Subsequently, the plasma was removed, placed into sterile polypropylene cryotubes and stored away from light at −80°C. Mass spectrometry analysis was performed on all plasma samples using 25 µl aliquots. Calibrators were prepared separately for each analyte. Stock solutions of diminazene, DB 75, DB 867 and DB1192 were prepared in water. Curves were then prepared and analysed in duplicate, at both the beginning and the end of the analytical run. Concentrations of diminazene, DB 75, DB 867 and DB 1192 were determined by Liquid Chromatography/Triple Quadrupole Mass Spectrometry (HPLC/MS-MS). The pharmacokinetic parameters were determined using Microsoft® Excel software, with a functional set of add-ins applied, together with a graphical programme (GraphPad Prism 5, GraphPad Software Inc, USA). The compound plasma levels can be seen in Figure 1 for a) the standard drug, diminazene, b) DB 1192, c) DB 75 and d) DB 867. The plasma samples taken were analysed by HPLC/MS-MS to determine the drug concentrations (in ng/ml). From these values, the averages from the experimental goats in each group were calculated and drug concentration versus time curves were plotted with a line of best fit applied, corresponding to either the high or low compound dose tested.

The mark [4] stands for this setting: 1.25 mg/kg i.m. x4, five month follow up.
Where [5] appears, read: 2.5 mg/kg i.m. x4, five month follow up.
Setting [6] is: 1.25 mg/kg x4, 72 hours after final injection.
Setting [7] is: 2.5 mg/kg x4, 72 hours after final injection.
[8] abbreviates: 2.5 mg/kg x4, 192 hours after final injection.
Where [9] appears, read: goat plasma, four applications of 1.25 mg/kg i.m., average plasma levels.
Where [10] appears, read: goat plasma, four applications of 2.5 mg/kg i.m., average plasma levels.

For `N=C(N)c1ccc(-c2ccc(-c3ccc(C(=N)N)cc3)o2)cc1` [DB 75], the “in vitro IC50” value in the series with T. evansi [1] is 2.3 ng/mL. Besides, the “estimated MIC (minimal inhibitory concentration)” value with T. evansi [1] was 9.2 ng/mL. Also, the values for the curative efficacy result in the series on T. evansi [2] (setting [4]) and in the series with T. evansi [2] (setting [5]) were “Complete cure; also recorded: complete curative efficacy” and “Complete curative efficacy”, respectively. Besides, the “concentration in goat plasma” value in series [3] (setting [6]) was 2223 ng/mL; in series [3] (1.25 mg/kg x4, 192 hours after final injection), “above 1500 ng/ml”; in series [3] (setting [7]), 1923 ng/mL; in series [3] (setting [8]), “above 1500 ng/ml”. Further, the AUC is given as 394305 in series [3] (setting [9]) and 358215 in series [3] (setting [10]). The values for the maximum concentration (Cmax) in series [3] (setting [9]) and in series [3] (setting [10]) were at least 3115 ng/mL and at least 2530 ng/mL, respectively. Also, the MRT (in general, a mean duration of stay, worked out from the concentration-time curve) in series [3] (setting [9]) is 89.5 h; in series [3] (setting [10]), 93.4 h. The T1/2 in series [3] (setting [9]) is 279.3 h; in series [3] (setting [10]) it was 473.7 h.
As for `N=C(N)c1ccc(-c2ccc(-c3ccc(C(=N)N)nc3)o2)cc1` [DB 867], in the series with T. evansi [1], the “in vitro IC50” value is 1.7 ng/mL and the “estimated MIC (minimal inhibitory concentration)” value was 6.8 ng/mL. Moreover, in the series on T. evansi [2] (1.25 mg/kg i.m. x4), the “time to relapse post treatment” value was determined as 4.5 months. In the series on T. evansi [2] (setting [4]), the curative efficacy result is recorded as “a relapse was seen during the final month of the follow up period”. Besides, the curative efficacy result in the series on T. evansi [2] (setting [5]) is listed as “Complete curative efficacy; also recorded: cured; also recorded: curative efficacy was seen”. In addition, the “concentration in goat plasma” value in series [3] (setting [6]) is given as “above 1850 ng/ml”. For the same molecule, in series [3] (setting [7]), the “concentration in goat plasma” value is given as “above 1850 ng/ml”. Also, in series [3] (setting [9]), the AUC came out at 381604; the maximum concentration (Cmax) (in general, the peak of the concentration-time curve) is at least 3663 ng/mL; the MRT was 87.9 h; the T1/2 stood at 202.5 h. In series [3] (setting [10]), this molecule displayed an AUC of 360895, a peak concentration (Cmax) of at least 3310 ng/mL, a mean residence time MRT of 90.0 h and a T1/2 of 221.4 h.
Take `Cc1cc(C(=N)N)ccc1-c1cc2cc(C(=N)N)ccc2[nH]1` [DB 1192]: in the series on T. evansi [1], the “in vitro IC50” value is 10.5 ng/mL and the “estimated MIC (minimal inhibitory concentration)” value is given as “around 40 ng/ml”. Moreover, in the series on T. evansi [2] (setting [4]), the curative efficacy entry is listed as “incapable of curing goats; also recorded: not effective”. The curative efficacy entry with T. evansi [2] (setting [5]) is recorded as “incapable of curing goats; also recorded: not effective”. Also, the “concentration in goat plasma” value in series [3] (setting [6]) came to 18 ng/mL. Besides, the “concentration in goat plasma” value in series [3] (setting [7]) came to 32 ng/mL. The “concentration in goat plasma” value in series [3] (setting [8]) was found to be 10 ng/mL. For the same molecule, in series [3] (both doses (2.5 and 1.25 mg/kg), post treatment), the “time until plasma level fell below the therapeutic threshold” value is at most 24 h. Also, in series [3] (setting [9]), the AUC is given as 4809, the Cmax was at least 836 ng/mL, the MRT came to 52.3 h and the T1/2 is 37.0 h. For the same molecule, in series [3] (setting [10]), the AUC amounted to 9861, the Cmax is at least 1563 ng/mL, the MRT is 38.4 h and the T1/2 was 30.5 h.
As to `N=C(N)c1ccc(/N=N/Nc2ccc(C(=N)N)cc2)cc1` [Diminazene, Diminazene aceturate, reference compound], in the series on T. evansi [1], the “in vitro IC50” value was 12.5 ng/mL and the “estimated MIC (minimal inhibitory concentration)” value is 50 ng/mL. The curative efficacy entry with T. evansi [2] (5 mg/kg i.m. x4, five month follow up) was “Complete curative efficacy”. In addition, the half-life (in general, the time needed for the level to fall by half in the phase considered) in series [3] (Canarian, im, goat plasma, four applications of 5 mg/kg i.m., average plasma levels) was 59.1 h. In series [3] (Canarian, im, goat plasma, four applications of 5 mg/kg i.m., average plasma levels, read-out: AUC), the AUC came to 194 µg·h/mL. For the same molecule, in series [3] (Canarian, im, goat plasma, four applications of 5 mg/kg i.m., average plasma levels, read-out: Cmax), the Cmax is at least 8640 ng/mL. For the same molecule, the mean residence time MRT in series [3] (Canarian, im, goat plasma, four applications of 5 mg/kg i.m., average plasma levels, read-out: MRT) turned out to be 70.7 h. The same molecule registered a concentration at 72 h in series [3] (goat, plasma, intramuscular, 5 mg/kg x4, 72 hours after the end of treatment) of 1110 ng/mL. The molecule further yielded a concentration at 192 h in series [3] (goat, plasma, intramuscular, 5 mg/kg x4, 192 hours after final injection) of 568 ng/mL.

The values above are taken from PMC3117839, “Efficacy Study of Novel Diamidine Compounds in a Trypanosoma evansi Goat Model” (PLoS ONE, 2011).
